Laboratory results: patent US11998566B1, “Method of synthesizing a silver nanoparticle composition using an extract of Salsola tetrandra” (KING FAISAL UNIVERSITY, priority 2023, dated 2024)

How the values were obtained:
A. fumigatus [1] = test: time kill assay; assay type: cell-based, Aspergillus fumigatus; conditions: 50 μg/mL; exposure for 24 hours; FIG. 1
Procedure: FIG. 1 is a graph showing time-kill curves of A. fumigatus following exposure to ST-AgNPs and amphotericin B for 24 hours (values are expressed as means±SD)
(§1) Several preliminary in vitro experiments were performed to confirm the potent antifungal potential of the green biosynthesized silver nanoparticles (ST-AgNPs) against A. fumigatus. […] Additionally, the inhibitory effect of the antifungals AMB and ST-AgNPs was also examined using light microscopy (FIGS. 2A-2C).

A. fumigatus [2] = test: light microscopy of mycelial growth / germination; assay type: cell-based, Aspergillus fumigatus; conditions: FIG. 2C
Procedure: FIGS. 2A-2C show differences in the mycelial growth of A. fumigatus in 2A) control 2B) following exposure to ST-AgNPs and 2C) following exposure to amphotericin B. (conventional antifungal agent).
as §1

C[C@@H]1[C@H](O)[C@@H](C)/C=C/C=C/C=C/C=C/C=C/C=C/C=C/[C@H](O[C@@H]2O[C@H](C)[C@@H](O)[C@H](N)[C@@H]2O)C[C@@H]2O[C@](O)(C[C@@H](O)C[C@@H](O)[C@H](O)CC[C@@H](O)C[C@@H](O)CC(=O)O[C@H]1C)C[C@H](O)[C@H]2C(=O)O [amphotericin B]
action on the growth of Aspergillus cells (time kill assay) (A. fumigatus [1]): fungistatic action | mycelial growth (A. fumigatus [2]): substantially reduced
